Ends that are not written are not given here.

The first data set relates to CTL from healthy donors having an HLA-A*0201 molecule. Put plainly: Cytotoxic activity of CTL induced by HLA-A*0201-restricted eEF2 peptides. The data set is classed as cell-based, human. The following applies: PBMC of HLA-A*0201 donors stimulated with peptide; 6th day after the final peptide stimulation. On the procedure: From T cell clones established as described above, CD8-positive T cells were purified using CD8 Microbeads to prepare effector cells. Subsequently, target cells were incubated with ^51Cr-labeled sodium chromate (Amersham Biosciences Corp., NJ) for 1 hour to label the cells. They were then mixed with the effector cells so that the ratio of cell count was 1:1, 3:1 and 9:1 of CTL/target cell (E/T) ratio, and the mixture was allowed to stand for 4 hours. The percentage of cells lysed was calculated according to the following equation: Specific lysis %=[(cpm experimental release−cpm spontaneous release)/(cpm maximal release−cpm spontaneous release)]×100. T2-2402 cells pulsed with an eEF2786-794 pep tide were used as the target cells, and T2-2402 cells not pulsed with the eEF2786-794 peptide (SEQ ID NO:7) as a negative control.
The experiments were carried out in much the same way as in the above Example 3. Thus, blood was taken from healthy donors having an HLA-A*0201 molecule, peripheral blood mononuclear cells were separated, and the first stimulation was carried out using the six candidate peptides (stimulator: self-PBMC). Subsequently, the peptide stimulation on the second day and later was carried out at intervals of 8 to 13 days (stimulator: allo B-LCL 3 mg/ml). Furthermore, IL-2 was added every 2 days after the second stimulation at a final concentration of 20 IU/ml. Cytotoxicity was measured on the 6th day after the final peptide stimulation.
In the case of `CC(C)C[C@H](NC(=O)[C@H](CCC(N)=O)NC(=O)[C@H](CS)NC(=O)[C@H](Cc1ccccc1)NC(=O)[C@@H](NC(=O)[C@H](CCCNC(=N)N)NC(=O)[C@@H]1CCCN1C(=O)[C@H](CC(C)C)NC(=O)[C@@H](N)CCCCN)[C@@H](C)O)C(=O)O` [eEF2284-292], the cytotoxic activity entry was “increase of cytotoxic activity was observed”.

Turning to `CC[C@H](C)[C@H](NC(=O)[C@@H]1CCCN1C(=O)[C@H](CC(=O)O)NC(=O)[C@H](CC(C)C)NC(=O)[C@H](CC(C)C)NC(=O)[C@@H](N)CC(C)C)C(=O)N[C@@H](Cc1ccccc1)C(=O)N[C@@H](CCCCN)C(=O)N[C@@H](CC(C)C)C(=O)O` [eEF2292-300 2L9L], the cytotoxic activity result is listed as “increase cytotoxicity”.

As to `CC[C@H](C)[C@H](NC(=O)[C@@H]1CCCN1C(=O)[C@H](CC(=O)O)NC(=O)[C@H](CC(C)C)NC(=O)[C@H](CC(C)C)NC(=O)[C@@H](N)CC(C)C)C(=O)N[C@@H](Cc1ccccc1)C(=O)N[C@@H](CCCCN)C(=O)N[C@H](C(=O)O)C(C)C` [eEF2292-300 2L], the cytotoxic activity entry is “increase cytotoxicity”.

On to `CC[C@H](C)[C@H](NC(=O)[C@@H]1CCCN1C(=O)[C@H](CC(=O)O)NC(=O)[C@H](CC(C)C)NC(=O)[C@H](CCSC)NC(=O)[C@@H](N)CC(C)C)C(=O)N[C@@H](Cc1ccccc1)C(=O)N[C@@H](CCCCN)C(=O)N[C@@H](CC(C)C)C(=O)O` [eEF2292-300 2M9L], for which the cytotoxic activity result is “increase cytotoxicity”.

As to `CC[C@H](C)[C@H](NC(=O)[C@@H]1CCCN1C(=O)[C@H](CC(=O)O)NC(=O)[C@H](CC(C)C)NC(=O)[C@H](CCSC)NC(=O)[C@@H](N)CC(C)C)C(=O)N[C@@H](Cc1ccccc1)C(=O)N[C@@H](CCCCN)C(=O)N[C@H](C(=O)O)C(C)C` [eEF2292-300 2M], the cytotoxic activity entry is recorded as “increase cytotoxicity”.

`CC[C@H](C)[C@H](NC(=O)[C@H](Cc1ccc(O)cc1)NC(=O)[C@H](CCSC)NC(=O)[C@H](CCSC)NC(=O)[C@@H](N)CC(C)C)C(=O)N[C@@H](CO)C(=O)N[C@@H](CCCCN)C(=O)N[C@@H](CCSC)C(=O)N[C@H](C(=O)O)C(C)C` [eEF2394-402]: the cytotoxic activity entry is given as “increase of cytotoxic activity was observed”.

As to `CC(C)C[C@H](NC(=O)[C@H](CCCNC(=N)N)NC(=O)[C@H](CCCCN)NC(=O)[C@H](CC(C)C)NC(=O)CNC(=O)[C@H](CCC(=O)O)NC(=O)[C@@H](NC(=O)[C@H](CC(C)C)NC(=O)[C@@H](N)CCCCN)C(C)C)C(=O)O` [eEF2519-527], the cytotoxic activity result is recorded as “increase of cytotoxic activity was observed”.

Regarding `CC[C@H](C)[C@H](N)C(=O)N[C@@H](CC(C)C)C(=O)N[C@H](C(=O)N[C@@H](CC(=O)O)C(=O)N[C@H](C(=O)N[C@H](C(=O)N[C@@H](CCCCN)C(=O)NCC(=O)N[C@H](C(=O)O)C(C)C)[C@@H](C)O)[C@@H](C)CC)[C@@H](C)O` [eEF2661-669], the cytotoxic activity result is given as “increase of cytotoxic activity was observed”.

Turning to `CC[C@H](C)[C@H](NC(=O)[C@H](CCC(=O)O)NC(=O)[C@H](CC(N)=O)NC(=O)[C@H](CC(C)C)NC(=O)[C@@H](N)Cc1ccc(O)cc1)C(=O)N[C@@H](CCCCN)C(=O)N[C@@H](CC(=O)O)C(=O)N[C@@H](CO)C(=O)N[C@H](C(=O)O)C(C)C` [eEF2671-679], the cytotoxic activity result is “increase of cytotoxic activity was observed”.

On to `CC[C@H](C)[C@H](NC(=O)[C@@H]1CCCN1C(=O)[C@H](CCC(=O)O)NC(=O)[C@H](CCSC)NC(=O)[C@H](CC(C)C)NC(=O)[C@@H](N)CCCNC(=N)N)C(=O)N[C@@H](Cc1ccc(O)cc1)C(=O)N[C@@H](CC(C)C)C(=O)N[C@H](C(=O)O)C(C)C` [eEF2739-747], for which the cytotoxic activity result is reported as “increase of cytotoxic activity was observed”.

A further data set concerns CD8-positive T cells of donors having the HLA-A*0206 molecule. Put plainly: Interferon-γ production, donors having the HLA-A*0206 molecule. The data set is classed as cell-based.
Settings: not given
How it is done: (§1) T cells were incubated together with HLA-A*0201 molecule-expressing T2 cells pulsed with HLA-A*0201-restricted eEF2 peptides in the presence of brefeldin A (Sigma) at 37° C. for 5 hours. After washing with PBS, CD3 and CD8 molecules which are cell surface antigens were stained by PerCP-conjugated anti-CD3 (BD Biosciences) and PE-conjugated anti-CD8 (Caltag, Burlingame, Calif.) antibodies on ice for 15 minutes. Subsequently, cells were fixed using Cytofix (BD Biosciences) on ice for 20 minutes, and intracellular IFN-γ was reacted with an FITC-conjugated anti-IFN-γ antibody (BD Biosciences) on ice for 30 minutes. Frequency of IFN-γ-positive cells present in CD8-positive T cells was analyzed using a flow cytometer.
Next, evaluation was carried out as to whether the above 6 peptides and the eEF2292-300 peptide (SEQ ID NO:14) can bind to an HLA-A*0206 molecule and produce interferon-γ. The experiments were carried out in the same way as in the above method, except that donors having the HLA-A*0206 molecule were used.
With “LILDPIFKV (listed as Homo sapiens) [eEF2292-300]”, the “production of interferon-γ” value was “also serve as an HLA-A*0206-restricted peptide”.

The test system of the next data set is colon cancer SW480 cells. Put plainly: Cytotoxic activity (51Cr release) of peptide-induced CTL against endogenous eEF2 gene-expressing cells. In kind it is cell-based. The following applies: SW480 (HLA-A*2402 on surface) vs AZ-521 and MiaPaCa2 (no HLA-A*2402) as negative control.
With AYLPVNESF [eEF2786-794], the “cytotoxic activity against endogenous eEF2 gene-expressing cells” value is “specifically impair the cells which express the eEF2 and have the HLA-A*2402 molecule”.

Another data set deals with CD8-positive T cells. Put plainly: Interferon-γ activity, T cells with peptide-pulsed HLA-A*2402 molecule-expressing T2 cells. The data set is classed as cell-based. As to conditions: HLA-A*2402 molecule-expressing T2 cells pulsed with peptide, 5 hours. On the procedure: as §1, with “HLA-A*2402” for “HLA-A*0201”, “with” for “with HLA-A*0201-restricted”, “peptides (eEF2409-417, eEF2412-420 and eEF2701-709 peptides)” for “peptides”
For AFGRVFSGL [eEF2412-420], the “interferon-γ activity (frequency of IFN-γ-positive cells in CD8-positive T cells)” value (shortened to “interferon-γ activity”) was “increase the interferon-γ activity”.

Take RFDVHDVTL [eEF2701-709]: the “interferon-γ activity” value is given as “increase the interferon-γ activity”.

Take “RFYAFGRVF (listed as Homo sapiens) [eEF2409-417]”: the “interferon-γ activity” value is on record as “increase the interferon-γ activity”.

(Values after patent US10383925B2, “Cancer antigen EEF2” (International Institute of Cancer Immunology, Inc., priority 2009, dated 2019).)
